From patent publication US20060069132A1, “Azolecarboxamide herbicides” (priority 2004, published 2006)
Like-named read-outs stand apart in the source and are kept apart here.

Experiments:
pigweed = experiment: Test B pre-/postemergence herbicide test; assay type: in vivo, Amaranthus retroflexus; conditions: Amaranthus retroflexus, 336 h; for pest or weed control at 125 g/ha: 125 g ai/ha; for pest or weed control at 500 g/ha: 500 g ai/ha
Summary of the method: (§1)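 Visual rating, 0 (no effect) to 100 (complete control), versus untreated controls after 13–15 d in greenhouse. Pre- and postemergence applications (postemergence plants 2–18 cm, 1–4 leaves); flooded paddy arm at 2-leaf stage. Compounds in non-phytotoxic solvent plus surfactant.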

[1] = tested on: small flower umbrella sedge; experiment: Test B flooded paddy test; assay type: in vivo, Cyperus difformis; conditions: Cyperus difformis, 336 h, 1000 g ai/ha, visual rating, scale 0 to 100 (0 no effect, 100 complete control), 13 to 15 days, read-out: Sedge, Umbrella plant response rating
Summary of the method: (§2)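 Postemergence plants were sprayed with formulated test chemicals at 2 to 18 cm height (1- to 4-leaf stage); paddy species were grown to the 2-leaf stage. After 13 to 15 days in a greenhouse, injury was rated visually against untreated controls on a 0–100 scale (0 = no effect, 100 = complete control).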

lambsquarters = experiment: Test B pre-/postemergence herbicide test; assay type: in vivo, Chenopodium album; conditions: Chenopodium album, 336 h; for pest or weed control at 125 g/ha: 125 g ai/ha; for pest or weed control at 500 g/ha: 500 g ai/ha
Summary of the method: as §1

velvetleaf = experiment: Test B pre-/postemergence herbicide test; assay type: in vivo, Abutilon theophrasti; conditions: Abutilon theophrasti, 336 h; for pest or weed control at 125 g/ha: 125 g ai/ha; for pest or weed control at 500 g/ha: 500 g ai/ha
Summary of the method: as §1

rice = experiment: Test B flooded paddy test; assay type: in vivo, Oryza sativa; conditions: Oryza sativa, 336 h, 1000 g ai/ha, visual rating, scale 0 to 100 (0 no effect, 100 complete control), 13 to 15 days, read-out: Rice plant response rating
Summary of the method: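 Read-out: visual comparison with controls, scored 0 to 100, where 100 means complete control and 0 no effect. Formulated chemicals were applied postemergence to plants 2–18 cm tall (1- to 4-leaf), or to flooded-paddy plants at the 2-leaf stage, then held 13 to 15 days under glass.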

ducksalad = experiment: Test B flooded paddy test; assay type: in vivo, Heteranthera limosa; conditions: Heteranthera limosa, 336 h, 1000 g ai/ha, visual rating, scale 0 to 100 (0 no effect, 100 complete control), 13 to 15 days, read-out: Ducksalad plant response rating
Summary of the method: as §2

wheat = experiment: Test B postemergence herbicide test; assay type: in vivo, Triticum aestivum; conditions: Triticum aestivum, post-emergence, 336 h, postemergence, visual rating, scale 0 (no effect) to 100 (complete control), read-out: Wheat plant response rating
Summary of the method: (§3)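 Greenhouse test; postemergence application to plants at 1–4 leaves (2–18 cm); paddy species at 2 leaves; evaluated visually vs controls at 13–15 days; scale 0–100 (100 = complete control).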

morningglory = experiment: Test B pre-/postemergence herbicide test; assay type: in vivo, Ipomoea coccinea; conditions: Ipomoea, 336 h; for pest or weed control at 125 g/ha: 125 g ai/ha; for pest or weed control at 500 g/ha: 500 g ai/ha
Summary of the method: (§4)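 Seeds were planted and treated preemergence with compounds formulated in a non-phytotoxic solvent mixture containing surfactant, while plants at the 1- to 4-leaf stage (2 to 18 cm) received postemergence sprays. Flooded paddy plants were grown to the 2-leaf stage. After 13 to 15 days in a greenhouse, injury was visually rated 0–100 against untreated controls.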

Surinam grass = experiment: Test B pre-/postemergence herbicide test; assay type: in vivo, Urochloa decumbens; conditions: Urochloa decumbens; for pest or weed control at 125 g/ha: 125 g ai/ha; for pest or weed control at 500 g/ha: 500 g ai/ha
Summary of the method: as §1

barnyardgrass = experiment: Test B pre-/postemergence herbicide test; assay type: in vivo, Echinochloa crus-galli; conditions: Echinochloa crus-galli; for pest or weed control at 125 g/ha: 125 g ai/ha; for pest or weed control at 500 g/ha: 500 g ai/ha
Summary of the method: as §4

giant foxtail = experiment: Test B pre-/postemergence herbicide test; assay type: in vivo, Setaria faberi; conditions: Setaria faberi, 336 h; for pest or weed control at 125 g/ha: 125 g ai/ha; for pest or weed control at 500 g/ha: 500 g ai/ha
Summary of the method: as §1

large crabgrass = experiment: Test B pre-/postemergence herbicide test; assay type: in vivo, Digitaria sanguinalis; conditions: Digitaria sanguinalis; for pest or weed control at 125 g/ha: 125 g ai/ha; for pest or weed control at 500 g/ha: 500 g ai/ha
Summary of the method: as §1

blackgrass = experiment: Test B postemergence herbicide test; assay type: in vivo, Alopecurus myosuroides; conditions: Alopecurus myosuroides, post-emergence, 336 h, postemergence, visual rating, scale 0 (no effect) to 100 (complete control), read-out: Blackgrass plant response rating
Summary of the method: as §2

corn = experiment: Test B pre-/postemergence herbicide test; assay type: in vivo, Zea mays; conditions: Zea mays; for plant injury at 125 g/ha: 125 g ai/ha
Summary of the method: as §1

wild oat = experiment: Test B postemergence herbicide test; assay type: in vivo, Avena fatua; conditions: Avena fatua, post-emergence, 336 h, postemergence, visual rating, scale 0 (no effect) to 100 (complete control), read-out: Oat, Wild plant response rating
Summary of the method: as §3

[2] = post-emergence, postemergence, visual rating, scale 0 (no effect) to 100 (complete control), read-out: Pigweed plant response rating
[3] = post-emergence, postemergence, visual rating, scale 0 (no effect) to 100 (complete control), read-out: Lambsquarters plant response rating
[4] = post-emergence, postemergence, visual rating, scale 0 (no effect) to 100 (complete control), read-out: Velvetleaf plant response rating
[5] = post-emergence, postemergence, visual rating, scale 0 (no effect) to 100 (complete control), read-out: Morningglory plant response rating
[6] = post-emergence, postemergence, visual rating, scale 0 (no effect) to 100 (complete control), read-out: Surinam Grass plant response rating
[7] = post-emergence, postemergence, visual rating, scale 0 (no effect) to 100 (complete control), read-out: Barnyardgrass plant response rating
[8] = post-emergence, postemergence, visual rating, scale 0 (no effect) to 100 (complete control), read-out: Foxtail, Giant plant response rating
[9] = post-emergence, postemergence, visual rating, scale 0 (no effect) to 100 (complete control), read-out: Crabgrass, Large plant response rating

CCc1nn(C(C)(C)C)cc1C(=O)Nc1cccc(C(=O)N(CC)CC)c1 [Compound 182, N-[3-[(diethylamino)carbonyl]phenyl]-1-(1,1-dimethylethyl)-3-ethyl-1H-pyrazole-4-carboxamide]
20%: pest or weed control at 125 g/ha (lambsquarters; pre-emergence, 0 = no effect, 100 = complete control, read-out: Lambsquarters plant response rating (0 to 100 scale)) | pest or weed control at 500 g/ha (Surinam grass; [6]) | pest or weed control at 125 g/ha (Surinam grass; pre-emergence, 0 = no effect, 100 = complete control, read-out: Surinam Grass plant response rating (0 to 100 scale)) | pest or weed control at 125 g/ha (barnyardgrass; pre-emergence, 0 = no effect, 100 = complete control, read-out: Barnyardgrass plant response rating (0 to 100 scale)) | pest or weed control at 500 g/ha (giant foxtail; [8]) | pest or weed control at 125 g/ha (large crabgrass; [9]) | pest or weed control at 125 g/ha (wild oat; 125 g ai/ha)
50%: pest or weed control at 125 g/ha (pigweed; [2]) | pest or weed control at 125 g/ha (morningglory; [5]) | pest or weed control at 500 g/ha (barnyardgrass; [7])
0%: pest or weed control at 125 g/ha (velvetleaf; [4]) | pest or weed control at 125 g/ha (velvetleaf; pre-emergence, 0 = no effect, 100 = complete control, read-out: Velvetleaf plant response rating (0 to 100 scale)) | plant injury at 1000 g/ha (rice) | plant injury at 125 g/ha (wheat; 125 g ai/ha) | pest or weed control at 125 g/ha (giant foxtail; [8]) | pest or weed control at 125 g/ha (blackgrass; 125 g ai/ha) | pest or weed control at 500 g/ha (blackgrass; 500 g ai/ha) | plant injury at 125 g/ha (corn; pre-emergence, 0 = no effect, 100 = complete control, read-out: Corn plant response rating (0 to 100 scale)) | Corn plant response rating (crop injury, 0 = no effect, 100 = complete kill) at 500 g/ha (corn; pre-emergence, 500 g ai/ha, visual rating 0-100, 0 no effect, 100 complete control)
60%: pest or weed control at 125 g/ha (lambsquarters; [3]) | pest or weed control at 500 g/ha (velvetleaf; [4]) | pest or weed control at 1000 g/ha (ducksalad) | pest or weed control at 500 g/ha (Surinam grass; pre-emergence, visual rating 0-100, 0 no effect, 100 complete control, read-out: Plant response rating, Surinam Grass)
70%: pest or weed control at 500 g/ha (pigweed; [2]) | pest or weed control at 500 g/ha (lambsquarters; [3]) | pest or weed control at 500 g/ha (velvetleaf; pre-emergence, visual rating 0-100, 0 no effect, 100 complete control, read-out: Plant response rating, Velvetleaf) | pest or weed control at 500 g/ha (morningglory; [5]) | pest or weed control at 125 g/ha (large crabgrass; pre-emergence, 0 = no effect, 100 = complete control, read-out: Crabgrass, Large plant response rating (0 to 100 scale))
80%: pest or weed control at 1000 g/ha [1] | pest or weed control at 500 g/ha (barnyardgrass; pre-emergence, visual rating 0-100, 0 no effect, 100 complete control, read-out: Plant response rating, Barnyardgrass)
10%: plant injury at 500 g/ha (wheat; 500 g ai/ha) | pest or weed control at 125 g/ha (morningglory; pre-emergence, 0 = no effect, 100 = complete control, read-out: Morningglory plant response rating (0 to 100 scale)) | pest or weed control at 125 g/ha (Surinam grass; [6])
100%: pest or weed control at 125 g/ha (pigweed; pre-emergence, 0 = no effect, 100 = complete control, read-out: Pigweed plant response rating (0 to 100 scale)) | pest or weed control at 500 g/ha (pigweed; pre-emergence, visual rating 0-100, 0 no effect, 100 complete control, read-out: Plant response rating, Pigweed) | pest or weed control at 500 g/ha (lambsquarters; pre-emergence, visual rating 0-100, 0 no effect, 100 complete control, read-out: Plant response rating, Lambsquarters) | pest or weed control at 500 g/ha (giant foxtail; pre-emergence, visual rating 0-100, 0 no effect, 100 complete control, read-out: Plant response rating, Foxtail, Giant) | pest or weed control at 500 g/ha (large crabgrass; pre-emergence, visual rating 0-100, 0 no effect, 100 complete control, read-out: Plant response rating, Crabgrass, Large)
30%: pest or weed control at 500 g/ha (morningglory; pre-emergence, visual rating 0-100, 0 no effect, 100 complete control, read-out: Plant response rating, Morningglory) | pest or weed control at 125 g/ha (barnyardgrass; [7]) | pest or weed control at 125 g/ha (giant foxtail; pre-emergence, 0 = no effect, 100 = complete control, read-out: Foxtail, Giant plant response rating (0 to 100 scale)) | pest or weed control at 500 g/ha (large crabgrass; [9]) | plant injury at 125 g/ha (corn; post-emergence, postemergence, visual rating, scale 0 (no effect) to 100 (complete control), read-out: Corn plant response rating) | plant injury at 500 g/ha (corn; post-emergence, postemergence, 500 g ai/ha, visual rating, scale 0 (no effect) to 100 (complete control), read-out: Corn plant response rating) | pest or weed control at 500 g/ha (wild oat; 500 g ai/ha)
